Data reported in US5773573A, “HIV peptides” (priority 1994, dated 1998).
Residues, ends and D or L forms follow the SMILES beside them.

Assay: White cell and T cell subset counts (CD4, CD8, NK) in HIV infected patient given HEP1
Assay type: in vivo, human
Settings: patient three, oral HEP1 10 mg daily day 2-22
Experimental: The objective of this study was to determine in an HIV infected patient if the induction of immunological tolerance to HEP1 could reduce immune activation and HIV infection. The design of the first clinical experiment was to orally administer HEP1 to the patient in daily 10 mg doses (the lower end of the preferred dose range). This was then followed approximately three months later with a subcutaneous administration of HEP1 at a higher dose of 140 mg. To assess the therapeutic benefit of HEP1, the following disease progression markers were measured by taking blood samples before, during and after each trial and determining: HIV levels by a p24 antigen assay, HIV infectivity by a cellular TCID assay and immune activation by quantitating levels of various lymphocytes.
T cell subsets were measured by adding a whole blood sample to a 4.5 ml tube containing EDTA and staining with monoclonal antibodies to CD3, CD4 and CD8. The percentage of T cells in Peripheral Blood Lymphocytes were determined by flow-cytometric procedures. The numbers of CD4 and CD8 T cells were determined by obtaining total and differential white-cell counts and multiplying by the appropriate factor obtained on flow cytometry.
The following markers of HIV disease progression were assayed: p24Ag (the concentration of HIV p24 protein in picogram/ml in the blood), TCID (the infectivity of the HIV in the cells of blood sample measured by an in vitro cell culture assay in which a serial dilution of the sample was mixed with activated uninfected PBMC and the level of HIV infection determined by p24Ag assay), total white count (immune activation measured by the number of white cells per mm^3), CD4 (the number of CD4 positive cells per mm^3), CD8 (the number of CD8 positive cells per mm^3), NK (the number of Natural Killer cells per mm^3), Lymphocytes (the number of cells per mm^3), Monocytes (the number of cells per mm^3), and Granulocytes (the number of cells per mm^3). Normalised data was calculated by dividing each data point by the value of its data series on day 1 of the trail and multiplying by 100.

CC(C)[C@H](NC(=O)[C@@H](NC(=O)[C@H](CCC(=O)O)NC(=O)[C@H](CCCNC(=N)N)NC(=O)[C@H](CCCNC(=N)N)NC(=O)[C@H](CCCCN)NC(=O)[C@H](CCCCN)NC(=O)[C@H](CCC(=O)O)NC(=O)[C@@H](N)[C@@H](C)O)[C@@H](C)O)C(=O)N[C@@H](CCC(=O)O)C(=O)N[C@@H](CCCNC(=N)N)C(=O)N[C@@H](CCC(=O)O)C(=O)N[C@@H](CCCCN)C(=O)N[C@@H](CCC(=O)O)C(=O)O [HEP1, NH2 ThrGluLysLysArgArgGluThrValGluArgGluLysGluCOOH] (H-TEKKRRETVEREKE-OH)
% Granulocytes (day 1, before first dose): 76.1%
% Granulocytes, normalised data (day 1 = 100) (day 1, before first dose): 100
% Lymphocytes (day 1, before first dose): 17.8%
% Lymphocytes, normalised data (day 1 = 100) (day 1, before first dose): 100
% Monocytes (day 1, before first dose): 6.1%
% Monocytes, normalised data (day 1 = 100) (day 1, before first dose): 100
CD4 (day 1, before first dose): 80 cells per mm^3
CD4, normalised data (day 1 = 100) (day 1, before first dose): 100
CD8 (day 1, before first dose): 900 cells per mm^3
CD8, normalised data (day 1 = 100) (day 1, before first dose): 100
Granulocytes (day 1, before first dose): 6230 cells per mm^3
Lymphocytes (day 1, before first dose): 1480 cells per mm^3
Lymphocytes, normalised data (day 1 = 100) (day 1, before first dose): 100
Monocytes (day 1, before first dose): 570 cells per mm^3
Monocytes, normalised data (day 1 = 100) (day 1, before first dose): 100
NK (day 1, before first dose): 30 cells per mm^3
NK, normalised data (day 1 = 100) (day 1, before first dose): 100
White count (day 1, before first dose): 8200 cells per mm^3
White count, normalised data (day 1 = 100) (day 1, before first dose): 100
% Granulocytes (day 7, during treatment): 81.4%
% Granulocytes, normalised data (day 1 = 100) (day 7, during treatment): 107
% Lymphocytes (day 7, during treatment): 15.5%
% Lymphocytes, normalised data (day 1 = 100) (day 7, during treatment): 87
% Monocytes (day 7, during treatment): 3.1%
% Monocytes, normalised data (day 1 = 100) (day 7, during treatment): 51
CD4 (day 7, during treatment): 80 cells per mm^3
CD4, normalised data (day 1 = 100) (day 7, during treatment): 100
CD8 (day 7, during treatment): 850 cells per mm^3
CD8, normalised data (day 1 = 100) (day 7, during treatment): 94
Granulocytes (day 7, during treatment): 6560 cells per mm^3
Granulocytes, normalised data (day 1 = 100) (day 7, during treatment): 105
Lymphocytes (day 7, during treatment): 1150 cells per mm^3
Lymphocytes, normalised data (day 1 = 100) (day 7, during treatment): 78
Monocytes (day 7, during treatment): 490 cells per mm^3
Monocytes, normalised data (day 1 = 100) (day 7, during treatment): 86
NK (day 7, during treatment): 30 cells per mm^3
NK, normalised data (day 1 = 100) (day 7, during treatment): 100
White count (day 7, during treatment): 8200 cells per mm^3
White count, normalised data (day 1 = 100) (day 7, during treatment): 100
% Granulocytes (day 14, during treatment): 76.8%
% Granulocytes, normalised data (day 1 = 100) (day 14, during treatment): 101
% Lymphocytes (day 14, during treatment): 16.8%
% Lymphocytes, normalised data (day 1 = 100) (day 14, during treatment): 94
% Monocytes (day 14, during treatment): 6.4%
% Monocytes, normalised data (day 1 = 100) (day 14, during treatment): 105
CD4 (day 14, during treatment): 90 cells per mm^3
CD4, normalised data (day 1 = 100) (day 14, during treatment): 113
CD8 (day 14, during treatment): 900 cells per mm^3
CD8, normalised data (day 1 = 100) (day 14, during treatment): 100
Granulocytes (day 14, during treatment): 5620 cells per mm^3
Granulocytes, normalised data (day 1 = 100) (day 14, during treatment): 90
Lymphocytes (day 14, during treatment): 1460 cells per mm^3
Lymphocytes, normalised data (day 1 = 100) (day 14, during treatment): 99
Monocytes (day 14, during treatment): 620 cells per mm^3
Monocytes, normalised data (day 1 = 100) (day 14, during treatment): 109
NK (day 14, during treatment): 40 cells per mm^3
NK, normalised data (day 1 = 100) (day 14, during treatment): 133
White count (day 14, during treatment): 7700 cells per mm^3
White count, normalised data (day 1 = 100) (day 14, during treatment): 94
% Granulocytes (day 21, during treatment): 76.2%
% Granulocytes, normalised data (day 1 = 100) (day 21, during treatment): 100
% Lymphocytes (day 21, during treatment): 18.6%
% Lymphocytes, normalised data (day 1 = 100) (day 21, during treatment): 104
% Monocytes (day 21, during treatment): 5.2%
% Monocytes, normalised data (day 1 = 100) (day 21, during treatment): 85
CD4 (day 21, during treatment): 80 cells per mm^3
CD4, normalised data (day 1 = 100) (day 21, during treatment): 100
CD8 (day 21, during treatment): 910 cells per mm^3
CD8, normalised data (day 1 = 100) (day 21, during treatment): 101
Granulocytes (day 21, during treatment): 5100 cells per mm^3
Granulocytes, normalised data (day 1 = 100) (day 21, during treatment): 82
Lymphocytes (day 21, during treatment): 1160 cells per mm^3
Lymphocytes, normalised data (day 1 = 100) (day 21, during treatment): 78
Monocytes (day 21, during treatment): 540 cells per mm^3
Monocytes, normalised data (day 1 = 100) (day 21, during treatment): 95
NK (day 21, during treatment): 40 cells per mm^3
NK, normalised data (day 1 = 100) (day 21, during treatment): 133
White count (day 21, during treatment): 6800 cells per mm^3
White count, normalised data (day 1 = 100) (day 21, during treatment): 83
% Granulocytes (day 28, after treatment): 74.5%
% Granulocytes, normalised data (day 1 = 100) (day 28, after treatment): 98
% Lymphocytes (day 28, after treatment): 20%
% Lymphocytes, normalised data (day 1 = 100) (day 28, after treatment): 112
% Monocytes (day 28, after treatment): 5.5%
% Monocytes, normalised data (day 1 = 100) (day 28, after treatment): 90
CD4 (day 28, after treatment): 80 cells per mm^3
CD4, normalised data (day 1 = 100) (day 28, after treatment): 100
CD8 (day 28, after treatment): 730 cells per mm^3
CD8, normalised data (day 1 = 100) (day 28, after treatment): 81
Granulocytes (day 28, after treatment): 4020 cells per mm^3
Granulocytes, normalised data (day 1 = 100) (day 28, after treatment): 65
Lymphocytes (day 28, after treatment): 1050 cells per mm^3
Lymphocytes, normalised data (day 1 = 100) (day 28, after treatment): 71
Monocytes (day 28, after treatment): 440 cells per mm^3
Monocytes, normalised data (day 1 = 100) (day 28, after treatment): 77
NK (day 28, after treatment): 20 cells per mm^3
NK, normalised data (day 1 = 100) (day 28, after treatment): 67
White count (day 28, after treatment): 5500 cells per mm^3
White count, normalised data (day 1 = 100) (day 28, after treatment): 67
% Granulocytes (day-69, before treatment): 80.4%
% Granulocytes, normalised data (day 1 = 100) (day-69, before treatment): 106
% Lymphocytes (day-69, before treatment): 15.4%
% Lymphocytes, normalised data (day 1 = 100) (day-69, before treatment): 87
% Monocytes (day-69, before treatment): 4.2%
% Monocytes, normalised data (day 1 = 100) (day-69, before treatment): 96
CD4 (day-69, before treatment): 90 cells per mm^3
CD4, normalised data (day 1 = 100) (day-69, before treatment): 113
CD8 (day-69, before treatment): 850 cells per mm^3
CD8, normalised data (day 1 = 100) (day-69, before treatment): 94
Granulocytes (day-69, before treatment): 6000 cells per mm^3
Granulocytes, normalised data (day 1 = 100) (day-69, before treatment): 96
Lymphocytes (day-69, before treatment): 1260 cells per mm^3
Lymphocytes, normalised data (day 1 = 100) (day-69, before treatment): 85
Monocytes (day-69, before treatment): 630 cells per mm^3
Monocytes, normalised data (day 1 = 100) (day-69, before treatment): 111
NK (day-69, before treatment): 20 cells per mm^3
